Where “and” joins values, the source holds several entries; their conditions need not be identical. Identical values can stand only once.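 Cultured in 96-well plates, cells were exposed to test compound for 48 hours across five concentrations. GI50: concentration for 50% inhibition of growth. TGI: total growth inhibition.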
Key:
Test in all cases: NCI anticancer screen, dose series, 48 h
HCC-2998 colon = system: HCC-2998 colon
MCF7 breast = system: MCF7 breast
NCI/ADR-RES ovarian = system: NCI/ADR-RES ovarian
MDA-MB-435 = system: MDA-MB-435
SK-MEL-28 melanoma = system: SK-MEL-28 melanoma
LOX IMVI melanoma = system: LOX IMVI melanoma
SR leukemia = system: SR leukemia
IGROV1 ovarian = system: IGROV1 ovarian
SNB-75 CNS = system: SNB-75 CNS
BT-549 breast = system: BT-549 breast

Work on `CCOC(=O)c1cnc2oc3ccc(O)cc3c2c1-c1ccccc1` yielded a TGI (HCC-2998 colon) of over 100 µM, a TGI (MCF7 breast) of over 100 µM and a GI50 (NCI/ADR-RES ovarian) of 4.77 µM. For the same molecule, the TGI (NCI/ADR-RES ovarian) was 73.7 µM, the TGI (MDA-MB-435) was over 100 µM and the TGI (SK-MEL-28 melanoma) was over 100 µM. The TGI (LOX IMVI melanoma) was over 100 µM, the TGI (SR leukemia) was over 100 µM and the GI50 (IGROV1 ovarian) was 2.53 µM. The TGI (IGROV1 ovarian) was over 100 µM, the GI50 (SNB-75 CNS) was 16.5 µM and the TGI (SNB-75 CNS) was 52.4 µM.
`COc1cc(/C=C2\Sc3scc(-c4cccc([N+](=O)[O-])c4)[n+]3C2=O)cc(OC)c1OC` was tested, and the TGI (HCC-2998 colon) was 27.5 µM, the TGI (MCF7 breast) was 13.7 µM and the TGI (NCI/ADR-RES ovarian) was over 100 µM. For the same molecule, the TGI (MDA-MB-435) was 25.2 µM, the TGI (SK-MEL-28 melanoma) was 34.8 µM and the TGI (LOX IMVI melanoma) was 24.1 µM. It also gave a TGI (SR leukemia) of 5.11 µM, a TGI (IGROV1 ovarian) of 29.4 µM and a TGI (SNB-75 CNS) of 8.77 µM.
Molecule `Nc1ccccc1CC(O)C(=O)O` (stereo unspecified) has a TGI (HCC-2998 colon) of over 100 µM, a TGI (MCF7 breast) of over 100 µM and a TGI (NCI/ADR-RES ovarian) of over 100 µM. The TGI (MDA-MB-435) was over 100 µM, the TGI (SK-MEL-28 melanoma) was over 100 µM and the TGI (LOX IMVI melanoma) was over 100 µM. For the same molecule, the TGI (SR leukemia) was over 100 µM and the TGI (SNB-75 CNS) was over 100 µM.
`OC(CCNCc1ccccc1)c1ccc2ccccc2c1` (stereo unspecified) was tested, and the TGI (HCC-2998 colon) was 62.8 µM, the TGI (MCF7 breast) was 54.3 µM and the TGI (NCI/ADR-RES ovarian) was 49.4 µM. It also gave a TGI (MDA-MB-435) of 44.2 µM, a TGI (SK-MEL-28 melanoma) of 34 µM and a TGI (LOX IMVI melanoma) of 27.2 µM. For the same molecule, the TGI (SR leukemia) was 98.3 µM, the TGI (IGROV1 ovarian) was 30.6 µM and the TGI (SNB-75 CNS) was 75.6 µM.
`CC1(C)CC(C)(C)C1=NNC(N)=O` gave a TGI (HCC-2998 colon) of over 100 µM, a TGI (MCF7 breast) of over 100 µM and a TGI (NCI/ADR-RES ovarian) of over 100 µM. The TGI (MDA-MB-435) was over 100 µM, the TGI (SK-MEL-28 melanoma) was over 100 µM and the TGI (LOX IMVI melanoma) was over 100 µM. For the same molecule, the TGI (SR leukemia) was over 100 µM, the TGI (IGROV1 ovarian) was over 100 µM and the TGI (SNB-75 CNS) was over 100 µM.
`CN(C)c1nc2oc(-c3ccccc3)c(-c3ccccc3)c2c2nnnn12` was tested, and the TGI (HCC-2998 colon) was over 100 µM, the TGI (MCF7 breast) was over 100 µM and the TGI (NCI/ADR-RES ovarian) was over 100 µM. The TGI (MDA-MB-435) was over 100 µM, the TGI (SK-MEL-28 melanoma) was over 100 µM and the TGI (LOX IMVI melanoma) was over 100 µM. The TGI (SR leukemia) was over 100 µM, the TGI (IGROV1 ovarian) was over 100 µM and the TGI (SNB-75 CNS) was over 100 µM.
With `COc1ccc(C2=NN(c3ccccc3)C[N+](c3ccc(OC)cc3)=N2)cc1` the TGI (HCC-2998 colon) was over 100 µM, the TGI (SK-MEL-28 melanoma) was over 100 µM and the TGI (LOX IMVI melanoma) was 61.9 µM. For the same molecule, the TGI (SR leukemia) was over 100 µM and the TGI (IGROV1 ovarian) was over 100 µM.
Molecule `CC1(C)C2C=CC1(C)C1(CC2)OCCO1` (stereo unspecified) has a TGI (HCC-2998 colon) of over 100 µM, a TGI (MCF7 breast) of over 100 µM and a TGI (NCI/ADR-RES ovarian) of over 100 µM. For the same molecule, the TGI (MDA-MB-435) was over 100 µM, the TGI (SK-MEL-28 melanoma) was over 100 µM and the TGI (LOX IMVI melanoma) was over 100 µM. For the same molecule, the TGI (SR leukemia) was over 100 µM, the TGI (IGROV1 ovarian) was over 100 µM and the TGI (SNB-75 CNS) was over 100 µM.
In the case of `COC(=O)c1cc2ccc(OC(C)=O)c(OC(C)=O)c2cn1`, the TGI (HCC-2998 colon) was 44.6 µM, the GI50 (MCF7 breast) was 16.7 µM and the TGI (MCF7 breast) was 6 µM and 35.5 µM. For the same molecule, the GI50 (NCI/ADR-RES ovarian) was 27.3 µM, the TGI (NCI/ADR-RES ovarian) was 70 µM and the TGI (MDA-MB-435) was 3.16 µM and 3.26 µM. For the same molecule, the TGI (SK-MEL-28 melanoma) was 34.3 µM, the TGI (LOX IMVI melanoma) was 3.63 µM and 2.6 µM and the TGI (SR leukemia) was 6.98 µM. The TGI (IGROV1 ovarian) was 33.9 µM and the TGI (SNB-75 CNS) was 42 µM.
Molecule `Nc1ncnc2c1nnn2C1CCC(CP(=O)(O)O)C1` (stereo unspecified) has a TGI (HCC-2998 colon) of over 100 µM, a TGI (MCF7 breast) of over 100 µM and a TGI (NCI/ADR-RES ovarian) of over 100 µM. The TGI (MDA-MB-435) was over 100 µM, the TGI (SK-MEL-28 melanoma) was over 100 µM and the TGI (LOX IMVI melanoma) was over 100 µM. It also gave a TGI (SR leukemia) of over 100 µM, a TGI (IGROV1 ovarian) of over 100 µM and a TGI (SNB-75 CNS) of over 100 µM.
Molecule `COc1ccc(C(=O)Cc2ccc(Br)cc2)cc1OC` has a TGI (HCC-2998 colon) of over 100 µM, a TGI (LOX IMVI melanoma) of over 100 µM and a TGI (SR leukemia) of over 100 µM. The TGI (IGROV1 ovarian) was over 100 µM and the TGI (SNB-75 CNS) was 54.5 µM.
`C[C@H]1C[C@H]2[C@@H]3C(C)(C)O[C@]4(O)C(=O)[C@]5(O)[C@@H](C)CC[C@H]1[C@]25C(=O)[C@]34C` gave a TGI (MCF7 breast) of over 100 µM, a TGI (NCI/ADR-RES ovarian) of over 100 µM and a TGI (MDA-MB-435) of 96.3 µM. It also gave a TGI (LOX IMVI melanoma) of over 100 µM, a TGI (SR leukemia) of 96.6 µM and a TGI (IGROV1 ovarian) of over 100 µM.
`O=C1c2cc3c(cc2CC12Cc1ccc4c(c1C2=O)CCCC4)CCCC3` (stereo unspecified) was tested, and the TGI (HCC-2998 colon) was over 100 µM, the TGI (MCF7 breast) was over 100 µM and the TGI (NCI/ADR-RES ovarian) was over 100 µM. It also gave a TGI (MDA-MB-435) of over 100 µM, a TGI (SK-MEL-28 melanoma) of over 100 µM and a TGI (LOX IMVI melanoma) of over 100 µM. It also gave a TGI (SR leukemia) of over 100 µM, a TGI (IGROV1 ovarian) of over 100 µM and a TGI (SNB-75 CNS) of over 100 µM.
Work on `CN(C(=O)c1ccco1)C(=S)N1CCN(c2ccccc2)CC1` yielded a TGI (SK-MEL-28 melanoma) of over 100 µM, a TGI (LOX IMVI melanoma) of over 100 µM and a TGI (SR leukemia) of over 100 µM. It also gave a TGI (IGROV1 ovarian) of over 100 µM and a TGI (SNB-75 CNS) of over 100 µM.
`O=C(c1cc(Cl)ccc1Cl)N1CCN(C(=O)c2cc(Cl)ccc2Cl)CC1` was tested, and the TGI (HCC-2998 colon) was over 100 µM, the TGI (MCF7 breast) was over 100 µM and the TGI (SK-MEL-28 melanoma) was over 100 µM. It also gave a TGI (LOX IMVI melanoma) of over 100 µM, a TGI (BT-549 breast) of over 100 µM and a TGI (SR leukemia) of over 100 µM. It also gave a TGI (IGROV1 ovarian) of over 100 µM and a TGI (SNB-75 CNS) of over 100 µM.
`COc1ccc(-c2cc(-c3ccc(Nc4ccnc5cc(Cl)ccc45)cc3)[nH]c(=O)c2C#N)c2ccccc12` showed a TGI (HCC-2998 colon) of over 92.9 µM, a TGI (NCI/ADR-RES ovarian) of over 100 µM and a TGI (SK-MEL-28 melanoma) of 42.3 µM. The TGI (BT-549 breast) was 71.7 µM, the TGI (SR leukemia) was 2.6 µM and the TGI (IGROV1 ovarian) was over 79.1 µM. The TGI (SNB-75 CNS) was 95.4 µM.
In the case of `Oc1c([Si](c2ccccc2)(c2ccccc2)c2ccccc2)cc2ccccc2c1-c1c(O)c([Si](c2ccccc2)(c2ccccc2)c2ccccc2)cc2ccccc12`, the TGI (HCC-2998 colon) was over 100 µM, the TGI (MCF7 breast) was over 100 µM and the TGI (NCI/ADR-RES ovarian) was over 100 µM. The TGI (MDA-MB-435) was over 100 µM, the TGI (SK-MEL-28 melanoma) was over 100 µM and the TGI (LOX IMVI melanoma) was over 100 µM. It also gave a TGI (SR leukemia) of over 100 µM, a TGI (IGROV1 ovarian) of over 100 µM and a TGI (SNB-75 CNS) of over 100 µM.
`CCOP(=O)(OCC)C1CC(n2cc(C)c(=O)[nH]c2=O)OC1CO` (stereo unspecified) showed a TGI (HCC-2998 colon) of over 100 µM, a TGI (MCF7 breast) of over 100 µM and a TGI (SK-MEL-28 melanoma) of over 100 µM. It also gave a TGI (LOX IMVI melanoma) of over 100 µM, a TGI (BT-549 breast) of over 100 µM and a TGI (SR leukemia) of over 100 µM. It also gave a TGI (IGROV1 ovarian) of over 100 µM and a TGI (SNB-75 CNS) of over 100 µM.
Work on `COc1ccc(C(=O)/C=C/c2c(Cl)c3c(c(OC)c2Cl)OCC(=O)N3)cc1` yielded a GI50 (MCF7 breast) of 2.32 µM, a TGI (MCF7 breast) of over 100 µM and a GI50 (NCI/ADR-RES ovarian) of 2.62 µM. It also gave a TGI (NCI/ADR-RES ovarian) of 7.08 µM, a GI50 (SK-MEL-28 melanoma) of 2.18 µM and a TGI (SK-MEL-28 melanoma) of 5.22 µM. The GI50 (LOX IMVI melanoma) was 1.36 µM, the TGI (LOX IMVI melanoma) was 2.88 µM and the GI50 (SR leukemia) was 1.15 µM. It also gave a TGI (SR leukemia) of 7.45 µM, a GI50 (IGROV1 ovarian) of 3.28 µM and a TGI (IGROV1 ovarian) of over 100 µM. It also gave a GI50 (SNB-75 CNS) of 2.23 µM and a TGI (SNB-75 CNS) of 9.71 µM.

Source: PubChem BioAssay (NCI)
